Data from patent publication US11180504B2 (ORCHID PHARMA LTD., priority 2016, dated 2021).
≈ marks a conversion by molar mass, not a printed value. Where two headings read alike, the source gives them in different places.

Assays:
[1] = test system: methicillin-sensitive Staphylococcus aureus; assay: MIC by broth micro-dilution (CLSI), methicillin-sensitive S. aureus; assay type: cell-based; conditions: Staphylococcus aureus, ATCC 29213 / MSSA, MSSA S. aureus ATCC29213; read-out: MIC
[2] = test system: carbapenemase producing K. pneumoniae; assay: MIC by broth micro-dilution (CLSI), carbapenemase producing K. pneumoniae; assay type: cell-based, Klebsiella pneumoniae; conditions: Klebsiella pneumoniae
[3] = test system: carbapenem sensitive Pseudomonas aeruginosa; assay: MIC by broth micro-dilution (CLSI), carbapenem sensitive P. aeruginosa; assay type: cell-based; conditions: Pseudomonas aeruginosa, ATCC27853, Meropenem susceptible P. aeruginosa ATCC27853; read-out: MIC
[4] = test system: carbapenem sensitive Escherichia coli; assay: MIC by broth micro-dilution (CLSI), carbapenem sensitive E. coli; assay type: cell-based; conditions: Escherichia coli, ATCC25922, ESBL −ve E. coli ATCC25922; read-out: MIC
[5] = ATCCBAA1705, KPC-2 K. pneumoniae ATCC BAA-1705, read-out: MIC

Row | SMILES | MIC [1] | MIC [2, 5] | MIC [3] | MIC [4] | MIC ([2]; ATCCBAA1705)
1 | C[C@@H](NC(=O)Cn1cnnn1)[C@H]1C(=O)N2C(C(=O)O)=C(S[C@@H]3CN[C@H](C(=O)N4CCN(C)CC4)C3)[C@H](C)[C@H]12 [Example 359, (4R,5S,6R)-6-((R)-1-(2-(1H-tetrazol-1-yl)acetamido)ethyl)-4-methyl-3-((3S,5S)-5-(4-methylpiperazine-1-carbonyl)pyrrolidin-3-ylthio)-7-oxo-1-azabicyclo[3.2.0]hept-2-ene-2-carboxylic acid] | 8 µg/mL (≈ 14.6 µM) | 2 µg/mL (≈ 3.65 µM) | 16 µg/mL (≈ 29.2 µM) | 0.5 µg/mL (≈ 0.913 µM) | –
2 | C[C@@H](NC(=O)Cn1cnnn1)[C@H]1C(=O)N2C(C(=O)O)=C(S[C@@H]3CN[C@H](C(=O)N4CC[N+](C)(C)CC4)C3)[C@H](C)[C@H]12 [Example 360, 4-((2S,4S)-((4R,5S,6R)-6-((R)-1-(2-(1H-tetrazol-1-yl)acetamido)ethyl)-2-carboxy-4-methyl-7-oxo-1-azabicyclo[3.2.0]hept-2-en-3-ylthio)pyrrolidine-2-carbonyl)-1,1-dimethylpiperazin-1-ium iodide] | 8 µg/mL | 2 µg/mL | 1 µg/mL | 0.5 µg/mL | –
3 | C[C@@H](NC(=O)Cn1cnnn1)[C@H]1C(=O)N2C(C(=O)O)=C(S[C@@H]3CN[C@H](C(=O)N4CCC(Nc5ncccn5)CC4)C3)[C@H](C)[C@H]12 [Example 370, (4R,5S,6R)-6-((R)-1-(2-(1H-tetrazol-1-yl)acetamido)ethyl)-4-methyl-7-oxo-3-((3S,5S)-5-(4-(pyrimidin-2-ylamino)piperidine-1-carbonyl)pyrrolidin-3-ylthio)-1-azabicyclo[3.2.0]hept-2-ene-2-carboxylic acid] | 8 µg/mL (≈ 12.8 µM) | 64 µg/mL (≈ 102 µM) | > 128 µg/mL | 4 µg/mL (≈ 6.39 µM) | –
4 | C[C@@H](NC(=O)Cn1cnnn1)[C@H]1C(=O)N2C(C(=O)O)=C(S[C@@H]3CN[C@H](C(=O)N4CCC(N)(CC#N)CC4)C3)[C@H](C)[C@H]12 [Example 371, (4R,5S,6R)-6-((R)-1-(2-(1H-tetrazol-1-yl)acetamido)ethyl)-3-((3S,5S)-5-(4-amino-4-(cyanomethyl)piperidine-1-carbonyl)pyrrolidin-3-ylthio)-4-methyl-7-oxo-1-azabicyclo[3.2.0]hept-2-ene-2-carboxylic acid] | 16 µg/mL (≈ 27.3 µM) | 4 µg/mL (≈ 6.82 µM) | 64 µg/mL (≈ 109 µM) | 1 µg/mL (≈ 1.7 µM) | –
5 | C[C@@H](NC(=O)c1ccccc1-n1cnnn1)[C@H]1C(=O)N2C(C(=O)O)=C(S[C@@H]3CN[C@H](C(=O)N4CC[C@@H](N)C4)C3)[C@H](C)[C@H]12 [Example 374, (4R,5S,6R)-6-((R)-1-(2-(1H-tetrazol-1-yl)benzamido)ethyl)-3-((3S,5S)-5-((R)-3-aminopyrrolidine-1-carbonyl)pyrrolidin-3-ylthio)-4-methyl-7-oxo-1-azabicyclo[3.2.0]hept-2-ene-2-carboxylic acid] | 8 µg/mL (≈ 13.4 µM) | > 128 µg/mL | > 128 µg/mL | 32 µg/mL (≈ 53.7 µM) | –
6 | C[C@@H](NC(=O)Cn1cnnn1)[C@H]1C(=O)N2C(C(=O)O)=C(S[C@@H]3CN[C@H](C(=O)N4CC[N+](C)(CCN)CC4)C3)[C@H](C)[C@H]12.[I-] [Example 375, 4-((2S,4S)-4-((4R,5S,6R)-6-((R)-1-(2-(1H-tetrazol-1-yl)acetamido)ethyl)-2-carboxy-4-methyl-7-oxo-1-azabicyclo[3.2.0]hept-2-en-3-ylthio)pyrrolidine-2-carbonyl)-1-(2-aminoethyl)-1-methylpiperazin-1-ium iodide] | 16 µg/mL | 8 µg/mL | 4 µg/mL | 2 µg/mL | –
7 | C[C@@H](NC(=O)Cn1cnnn1)[C@H]1C(=O)N2C(C(=O)O)=C(SC3CN(S(N)(=O)=O)C3)[C@H](C)[C@H]12 [Example 376, (4R,5S,6R)-6-((R)-1-(2-(1H-tetrazol-1-yl)acetamido)ethyl)-4-methyl-7-oxo-3-(1-sulfamoylazetidin-3-ylthio)-1-azabicyclo[3.2.0]hept-2-ene-2-carboxylic acid] | 8 µg/mL (≈ 16.4 µM) | 16 µg/mL (≈ 32.9 µM) | > 128 µg/mL | 0.25 µg/mL (≈ 0.514 µM) | –
8 | C[C@@H](NC(=O)Cn1cnnn1)[C@H]1C(=O)N2C(C(=O)O)=C(S[C@@H]3CN[C@H](C(=O)N4C5CCC4CC4(CCNC4)C5)C3)[C@H](C)[C@H]12 (stereo partly drawn) [Example 377, (4R,5S,6R)-6-((R)-1-(2-(1H-tetrazol-1-yl)acetamido)ethyl)-3-((3S,5S)-5-(8-azaspiro[bicyclo[3.2.1]octane-3,3′-pyrrolidine]-8-ylcarbonyl)pyrrolidin-3-ylthio)-4-methyl-7-oxo-1-azabicyclo[3.2.0]hept-2-ene-2-carboxylic acid] | 4 µg/mL (≈ 6.52 µM) | – | 8 µg/mL (≈ 13 µM) | 0.25 µg/mL (≈ 0.407 µM) | 2 µg/mL (≈ 3.26 µM)
9 | C[C@@H](NC(=O)Cn1nnnc1C1CC1)[C@H]1C(=O)N2C(C(=O)O)=C(S[C@@H]3CN[C@H](C(=O)N(C)C)C3)[C@H](C)[C@H]12 [Example 378] | 4 µg/mL (≈ 7.51 µM) | 2 µg/mL (≈ 3.75 µM) | 128 µg/mL (≈ 240 µM) | 0.25 µg/mL (≈ 0.469 µM) | –

Further compounds by falling MIC [1], results first:

Row | MIC [1] | MIC [2, 5] | MIC [3] | MIC [4] | SMILES | MIC ([2]; ATCCBAA1705)
10 | 4 µg/mL | 2 µg/mL | 1 µg/mL | 0.25 µg/mL | C[C@@H](NC(=O)Cn1cnnn1)[C@H]1C(=O)N2C(C(=O)O)=C(S[C@@H]3CN[C@H](C(=O)N4CC[N+](C)(CC(N)=O)CC4)C3)[C@H](C)[C@H]12.[I-] [Example 363, 4-((2S,4S)-4-((4R,5S,6R)-6-((R)-1-(2-(1H-tetrazol-1-yl)acetamido)ethyl)-2-carboxy-4-methyl-7-oxo-1-azabicyclo[3.2.0]hept-2-en-3-ylthio)pyrrolidine-2-carbonyl)-1-(2-amino-2-oxoethyl)-1-methylpiperazin-1-ium iodide] | –
11 | 4 µg/mL (≈ 6.94 µM) | 2 µg/mL (≈ 3.47 µM) | 1 µg/mL (≈ 1.73 µM) | 0.25 µg/mL (≈ 0.434 µM) | C[C@@H](NC(=O)Cn1cnnn1)[C@H]1C(=O)N2C(C(=O)O)=C(S[C@@H]3CN[C@H](C(=O)N4CCN(CCN)CC4)C3)[C@H](C)[C@H]12 [Example 364, (4R,5S,6R)-6-((R)-1-(2-(1H-tetrazol-1-yl)acetamido)ethyl)-3-((3S,5S)-5-(4-(2-aminoethyl)piperazine-1-carbonyl)pyrrolidin-3-ylthio)-4-methyl-7-oxo-1-azabicyclo[3.2.0]hept-2-ene-2-carboxylic acid] | –
12 | 4 µg/mL (≈ 6.97 µM) | 2 µg/mL (≈ 3.49 µM) | 2 µg/mL (≈ 3.49 µM) | 0.25 µg/mL (≈ 0.436 µM) | C[C@@H](NC(=O)Cn1cnnn1)[C@H]1C(=O)N2C(C(=O)O)=C(S[C@@H]3CN[C@H](C(=O)N4CCC5(CCN5)CC4)C3)[C@H](C)[C@H]12 [Example 365, (4R,5S,6R)-3-((3S,5S)-5-(1,7-diazaspiro[3.5]nonane-7-carbonyl)pyrrolidin-3-ylthio)-6-((R)-1-(2-(1H-tetrazol-1-yl)acetamido)ethyl)-4-methyl-7-oxo-1-azabicyclo[3.2.0]hept-2-ene-2-carboxylic acid] | –
13 | 4 µg/mL (≈ 6.97 µM) | 2 µg/mL (≈ 3.49 µM) | 2 µg/mL (≈ 3.49 µM) | 0.25 µg/mL (≈ 0.436 µM) | C[C@@H](NC(=O)Cn1cnnn1)[C@H]1C(=O)N2C(C(=O)O)=C(S[C@@H]3CN[C@H](C(=O)N4CC5(CCNCC5)C4)C3)[C@H](C)[C@H]12 [Example 366] | –
14 | 4 µg/mL (≈ 6.97 µM) | 8 µg/mL (≈ 13.9 µM) | 64 µg/mL (≈ 112 µM) | 0.5 µg/mL (≈ 0.872 µM) | C[C@@H](NC(=O)Cn1nnnc1C1CC1)[C@H]1C(=O)N2C(C(=O)O)=C(S[C@@H]3CN[C@H](C(=O)N4CC[C@@H](N)C4)C3)[C@H](C)[C@H]12 [Example 372, (4R,5S,6R)-3-((3S,5S)-5-((R)-3-aminopyrrolidine-1-carbonyl)pyrrolidin-3-ylthio)-6-((R)-1-(2-(5-cyclopropyl-1H-tetrazol-1-yl)acetamido)ethyl)-4-methyl-7-oxo-1-azabicyclo[3.2.0]hept-2-ene-2-carboxylic acid] | –
15 | 4 µg/mL (≈ 7.21 µM) | > 128 µg/mL | > 128 µg/mL | 32 µg/mL (≈ 57.7 µM) | C[C@@H](NC(=O)c1ccccc1-n1cnnn1)[C@H]1C(=O)N2C(C(=O)O)=C(S[C@@H]3CN[C@H](C(=O)N(C)C)C3)[C@H](C)[C@H]12 [Example 373] | –
16 | 2 µg/mL (≈ 3.47 µM) | 2 µg/mL (≈ 3.47 µM) | 1 µg/mL (≈ 1.74 µM) | 0.25 µg/mL (≈ 0.434 µM) | C[C@@H](NC(=O)Cn1cnnn1)[C@H]1C(=O)N2C(C(=O)O)=C(S[C@@H]3CN[C@H](C(=O)N4CCN(C(=N)N)CC4)C3)[C@H](C)[C@H]12 [Example 367, (4R,5S,6R)-6-((R)-1-(2-(1H-tetrazol-1-yl)acetamido)ethyl)-3-((3S,5S)-5-(4-carbamimidoylpiperazine-1-carbonyl)pyrrolidin-3-ylthio)-4-methyl-7-oxo-1-azabicyclo[3.2.0]hept-2-ene-2-carboxylic acid] | –
17 | 2 µg/mL (≈ 3.49 µM) | 2 µg/mL (≈ 3.49 µM) | 1 µg/mL (≈ 1.74 µM) | 0.25 µg/mL (≈ 0.436 µM) | C[C@@H](NC(=O)Cn1cnnn1)[C@H]1C(=O)N2C(C(=O)O)=C(S[C@@H]3CN[C@H](C(=O)N4CCC5(CC4)CNC5)C3)[C@H](C)[C@H]12 [Example 368, (4R,5S,6R)-6-((R)-1-(2-(1H-tetrazol-1-yl)acetamido)ethyl)-3-((3S,5S)-5-(2,7-diazaspiro[3.5]nonane-7-carbonyl)pyrrolidin-3-ylthio)-4-methyl-7-oxo-1-azabicyclo[3.2.0]hept-2-ene-2-carboxylic acid] | –
18 | 2 µg/mL (≈ 3.65 µM) | 8 µg/mL (≈ 14.6 µM) | 16 µg/mL (≈ 29.2 µM) | 0.25 µg/mL (≈ 0.457 µM) | C[C@@H](NC(=O)CCn1cnnn1)[C@H]1C(=O)N2C(C(=O)O)=C(S[C@@H]3CN[C@H](C(=O)N4CC[C@@H](N)C4)C3)[C@H](C)[C@H]12 [Example 369, (4R,5S,6R)-6-((R)-1-(3-(1H-tetrazol-1-yl)propanamido)ethyl)-3-((3S,5S)-5-((R)-3-aminopyrrolidine-1-carbonyl)pyrrolidin-3-ylthio)-4-methy-7-oxo-1-azabicyclo[3.2.0]hept-2-ene-2-carboxylic acid] | –
